The results in this text go back to ChEMBL document CHEMBL1156346, “Cytotoxic and novel compounds from Solanum indicum” (J Nat Prod, 2001).

The assay relates to OVCAR-3. Briefly: Cytotoxicity against human OVCAR-3 cells. The assay is classed as functional, cell-based.

As a reminder, the IC50 is the concentration that gives 50% inhibition. A low value points to higher potency. In turn, `C=C(C)[C@@H]1CC[C@@]2(C1)C(C)=CC(=O)C[C@H]2C` [SOLAVETIVONE] returned an IC50 of 100 µM.
